Source: paper PMC11239830, “Synthetic macrolides overcoming MLSBK-resistant pathogens” (Cell Discovery, 2024)
≈ marks a conversion by molar mass, not a printed value. Read-outs that look alike come from different tables or passages of the source.

Columns and labels:
[1] = test system: E. coli S30 extract protein synthesis; assay: In vitro E. coli transcription/translation assay; assay type: biochemical; settings: cell-free transcription/translation, materials from E. coli
Description: The in vitro transcription/translation assay for E. coli utilized materials from the E. coli S30 extract system for circular DNA (L1020, Promega, USA). This kit contains all the necessary components for efficient transcription and translation of a user-provided DNA template. To test the inhibition of protein synthesis, the assay uses plasmid pBESTluc, which contains the firefly luciferase gene, as the DNA template. The intensity of luminescence resulting from luciferase expression corresponds to the efficiency of protein synthesis. The luminescence intensity was quantified in the presence or absence of the tested compounds. […] This experiment was repeated twice independently.

[2] = test system: human ribosome (HEK293F whole-cell lysate); assay: Mammalian cell-free in vitro translation assay; assay type: biochemical; settings: human ribosomes, read-out: IC50, translation of Fluc mRNA
Protocol: For the in vitro translation assay, the whole-cell extract was derived from cultured HEK293F cells. The translation reactions were conducted in a total volume of 10 μL, comprising 4 μL of the HEK293F extract, 1 μL 10× Translation Buffer containing 160 mM HEPESs-KOH (pH 7.6), 100 mM Creatine phosphate, 1 mM Spermidine, 10 mM ATP, 1 mM GTP, 20 mM DTT, 800 ng/μL CKM, 600 mM KOAc, 30 mM Mg(OAc)2 and 200 μM Amino acids. The reaction mixture also included 2 U of RiboLock RNase inhibitor (ThermoFisher Scientific), 0.5 mM D-luciferin (Promega), 1 μL of either antibiotic solution or solvent (water or 10% DMSO), as specified, and 100 ng mRNA (added as a 1 μL water solution after pre-incubation of the reaction mixture with antibiotic for 5 min at 30 °C). Following the addition of mRNA, the mixtures were transferred to a pre-heated 96-well CELL CULTER PLATE (WHB), sealed with a PCR plate seal, and incubated in the CLARIOstar plate reader (BMG Labtech) at 37 °C with continuous luciferase activity measurement, following established procedures[66],[67]. Luciferase activity values were determined based on light intensities at 60 min.

[3] = test system: HepG2 cells; assay: CCK-8 assay for cytotoxicity; assay type: cell-based, human; settings: for cytotoxicity at 5 μM: HepG2, 5 μM, 48 h
Protocol: (§1) HepG2 cells (6 × 10^3) and HEK293T cells (4 × 10^3) were seeded into 96-well plates in 90 μL of DMEM medium containing 10% FBS per well. All test compounds were formulated as 10 mM stock solutions in DMSO (final concentration ≤ 0.5%). After overnight incubation, the test compound stock solution was diluted with DMEM medium containing 10% FBS to every target concentration, and 10 μL of each was added to each well. Three parallel experiments were set up for each compound. After incubation for 48 h, 10 μL of cell counting kit-8 (CCK-8) reagent was added to each well in sequence according to the manufacturer’s instructions. After incubating in a 37 °C incubator for 1–2 h, the absorbance was measured at a wavelength of 450 nm, and detected by ThermoScientific Multiskan FC (ThermoFisher Scientific, USA). This experiment was independently repeated three times. The data were processed by GraphPad Prism.

[4] = CCK-8 assay for cytotoxicity; assay type: cell-based, human
Protocol: as §1

[5] = test system: E. coli JW5503 ΔtolC pDualrep2; assay: pDualrep2 dual-reporter assay; assay type: cell-based; settings: red = Katushka2S, translation inhibitors; green = RFP, DNA damage
[6] = test system: S. aureus; assay: MICs and MBCs against selected S. aureus isolates; assay type: cell-based, Staphylococcus aureus
[7] = test system: S. aureus; assay: Time-kill kinetics assay; assay type: cell-based, Staphylococcus aureus
Protocol: To further determine the bactericidal activity of MCX-219, a time-kill assay was performed according to the method described previously. The S. aureus cultured overnight was diluted 10^4 times with CAMHB broth and incubated for 2 h. […] The number of colonies was measured at 0 h, 1 h, 3 h, 6 h, 9 h and 24 h. A flask containing bacteria left unexposed to antibiotic was used as blank control, and telithromycin was used as the positive drug (comparator drug).

[8] = test system: H. influenzae; assay: MIC, broth microdilution; assay type: cell-based, Haemophilus influenzae
In short: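 Minimum inhibitory concentrations were measured by broth microdilution following CLSI guidelines. Plates were incubated at 37 °C for 16–20 h before results were read and recorded, and each determination was repeated at least three times.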

[9] = human, HepG2 cells, HepG2 cell viability, 48 h, read-out: CC50
[10] = Staphylococcus aureus, ATCC29213, S. aureus ATCC29213 (Table S10), read-out: MIC
[11] = Staphylococcus aureus, MRSA, strain 1, MRSA, i-ermA
[12] = Staphylococcus aureus, MRSA, strain 4, MRSA, i-ermA
[13] = Staphylococcus aureus, MRSA, strain 5, MRSA, i-ermC
[14] = Staphylococcus aureus, MRSA, strain 6, MRSA, c-ermB
[15] = Staphylococcus aureus, MRSA, strain 7, MRSA, c-ermB
[16] = Staphylococcus aureus, MRSA, strain 10, MRSA, c-ermB
[17] = Staphylococcus aureus, MRSA, strain 11, MRSA, c-ermB
[18] = Staphylococcus aureus, MSSA, strain 2, MSSA, i-ermC, read-out: MIC
[19] = Staphylococcus aureus, MSSA, strain 3, MSSA, i-ermC, read-out: MIC
[20] = Staphylococcus aureus, MSSA, strain 8, MSSA, c-ermB
[21] = Staphylococcus aureus, S. aureus ATCC29213, read-out: MBC
[22] = Staphylococcus aureus, strain 3, MSSA, i-ermC, read-out: MBC
[23] = Haemophilus influenzae, ATCC49247, H. influenzae ATCC49247, Azi-S, read-out: MIC

CC[C@H]1OC(=O)[C@H](C)[C@@H](OC(=O)NCCCOCCC#Cc2ccc3c(=O)c(C(=O)O)cn(C)c3c2)[C@H](C)[C@@H](O[C@@H]2O[C@H](C)C[C@H](N(C)C)[C@H]2O)[C@](C)(OC)C[C@@H](C)C(=O)[C@H](C)[C@H]2NC(=O)O[C@@]21C [MCX-190]
IC50 [1]: 0.67 µM
IC50 [2]: > 100 µM
cytotoxicity at 5 μM [3]: significantly reduced cytotoxicity compared to TcmX
CC50 (cytotoxicity) ([3]; human HepG2 and HEK293T cells): essentially non-cytotoxic
CC50 at 48 h [4, 9]: > 200 µM
dual-reporter inhibition zone colour [5]: red color inhibition zone

CC[C@H]1OC(=O)[C@H](C)[C@@H](OC(=O)NCCCCCCC#Cc2ccc3c(=O)c(C(=O)O)cn(C)c3c2)[C@H](C)[C@@H](O[C@@H]2O[C@H](C)C[C@H](N(C)C)[C@H]2O)[C@](C)(OC)C[C@@H](C)C(=O)[C@H](C)[C@H]2NC(=O)O[C@@]21C [MCX-219]
IC50 [1]: 1.19 µM
MBC/MIC ([6]; S. aureus ATCC29213): 4
MIC [6, 10]: 0.25 µg/mL (≈ 0.258 µM)
MBC [6, 11]: 1 µg/mL (≈ 1.03 µM)
MIC [6, 11]: 0.25 µg/mL (≈ 0.258 µM)
MBC [6, 12]: 0.5 µg/mL (≈ 0.517 µM)
MIC [6, 12]: 0.12 µg/mL (≈ 0.124 µM)
MBC [6, 13]: 2 µg/mL (≈ 2.07 µM)
MIC [6, 13]: 1 µg/mL (≈ 1.03 µM)
MBC [6, 14]: 16 µg/mL (≈ 16.5 µM)
MIC [6, 14]: 2 µg/mL (≈ 2.07 µM)
MBC [6, 15]: > 16 µg/mL
MIC [6, 15]: 2 µg/mL (≈ 2.07 µM)
MBC [6, 16]: 16 µg/mL (≈ 16.5 µM)
MIC [6, 16]: 4 µg/mL (≈ 4.14 µM)
MBC [6, 17]: > 16 µg/mL
MIC [6, 17]: 2 µg/mL (≈ 2.07 µM)
MIC [6, 18]: 0.25 µg/mL (≈ 0.258 µM)
MIC [6, 19]: 0.25 µg/mL (≈ 0.258 µM)
MBC [6, 20]: 16 µg/mL (≈ 16.5 µM)
MIC ([6]; Staphylococcus aureus, MSSA, strain 8, MSSA, c-ermB, read-out: MIC): 4 µg/mL (≈ 4.14 µM)
MIC ([6]; Staphylococcus aureus, MSSA, strain 9, MSSA, c-ermB, read-out: MIC): 0.5 µg/mL (≈ 0.517 µM)
MBC [6, 21]: 1 µg/mL (≈ 1.03 µM)
MBC [6, 22]: 2 µg/mL (≈ 2.07 µM)
S. aureus isolates with bactericidal activity (MBC/MIC ≤ 4) ([6]; selected S. aureus isolates): 58.3%
MBC/MIC ([6]; strain 1, MRSA, i-ermA): 4
MBC ([6]; strain 2, MSSA, i-ermC): 2 µg/mL (≈ 2.07 µM)
MBC/MIC ([6]; strain 2, MSSA, i-ermC): 8
MBC/MIC ([6]; strain 3, MSSA, i-ermC): 8
MBC/MIC ([6]; strain 4, MRSA, i-ermA): 4
MBC/MIC ([6]; strain 5, MRSA, i-ermC): 2
MBC/MIC ([6]; strain 6, MRSA, c-ermB): 8
MBC/MIC ([6]; strain 7, MRSA, c-ermB): > 8
MBC/MIC ([6]; strain 8, MSSA, c-ermB): 4
MBC/MIC ([6]; strain 9, MSSA, c-ermB): 4
MBC/MIC ([6]; strain 10, MRSA, c-ermB): 4
MBC/MIC ([6]; strain 11, MRSA, c-ermB): > 8
time-kill kinetics ([7]; constitutively erm-modified S. aureus 15B196): bactericidal
time-kill kinetics ([7]; induciblely erm-modified S. aureus PU32): bacteriostatic
IC50 [2]: > 100 µM
MIC ([8]; H. influenzae ATCC49247, Azi-S, listed as 88g): 4 µg/mL (≈ 4.14 µM)
MIC [8, 23]: 2 µg/mL (≈ 2.07 µM)
cytotoxicity at 5 μM [3]: significantly reduced cytotoxicity compared to TcmX
CC50 at 48 h ([4]; human HepG2 and HEK293T cells, read-out: CC50 (cytotoxicity)): 26 to 29 µM
CC50 at 48 h [4, 9]: 28.9 ± 2.68 µM
dual-reporter inhibition zone colour [5]: red color inhibition zone

CC[C@H]1OC(=O)[C@H](C)C(=O)[C@H](C)[C@@H](O[C@@H]2O[C@H](C)C[C@H](N(C)C)[C@H]2O)[C@](C)(OC)C[C@@H](C)C(=O)[C@H](C)[C@H]2N(CCCCn3cnc(-c4cccnc4)c3)C(=O)O[C@]12C [telithromycin, reference compound]
MIC [6, 10]: 0.12 µg/mL (≈ 0.148 µM)
MBC ([6]; Staphylococcus aureus, MRSA, strain 1, MRSA, i-ermA, read-out: MBC): > 2 µg/mL
MIC ([6]; Staphylococcus aureus, MRSA, strain 1, MRSA, i-ermA, read-out: MIC): 0.25 µg/mL (≈ 0.308 µM)
MBC ([6]; Staphylococcus aureus, MRSA, strain 4, MRSA, i-ermA, read-out: MBC): > 1 µg/mL
MIC ([6]; Staphylococcus aureus, MRSA, strain 4, MRSA, i-ermA, read-out: MIC): 0.12 µg/mL (≈ 0.148 µM)
MBC ([6]; Staphylococcus aureus, MRSA, strain 5, MRSA, i-ermC, read-out: MBC): > 2 µg/mL
MIC ([6]; Staphylococcus aureus, MRSA, strain 5, MRSA, i-ermC, read-out: MIC): 0.25 µg/mL (≈ 0.308 µM)
MBC ([6]; Staphylococcus aureus, MRSA, strain 6, MRSA, c-ermB, read-out: MBC): > 64 µg/mL
MIC ([6]; Staphylococcus aureus, MRSA, strain 6, MRSA, c-ermB, read-out: MIC): 8 µg/mL (≈ 9.85 µM)
MBC ([6]; Staphylococcus aureus, MRSA, strain 7, MRSA, c-ermB, read-out: MBC): > 64 µg/mL
MIC ([6]; Staphylococcus aureus, MRSA, strain 7, MRSA, c-ermB, read-out: MIC): 8 µg/mL (≈ 9.85 µM)
MBC ([6]; Staphylococcus aureus, MRSA, strain 10, MRSA, c-ermB, read-out: MBC): > 128 µg/mL
MIC ([6]; Staphylococcus aureus, MRSA, strain 10, MRSA, c-ermB, read-out: MIC): 16 µg/mL (≈ 19.7 µM)
MIC [6, 17]: 128 µg/mL (≈ 158 µM)
MIC [6, 18]: 0.12 µg/mL (≈ 0.148 µM)
MIC [6, 19]: 0.12 µg/mL (≈ 0.148 µM)
MIC [6, 20]: > 256 µg/mL
MIC ([6]; Staphylococcus aureus, MSSA, strain 9, MSSA, c-ermB): > 256 µg/mL
MBC [6, 21]: > 1 µg/mL
MBC [6, 22]: > 1 µg/mL
MBC ([6]; strain 2, MSSA, i-ermC): > 1 µg/mL
MIC [8, 23]: 4 µg/mL (≈ 4.93 µM)
